In patent publication US10144938B2, “Methods of processing aromatic compounds” (WISCONSIN ALUMNI RESEARCH FOUNDATION, priority 2015, dated 2018):

Tests used:
[1] = tested on: bacterial or yeast ethanologens; conditions: literature reports; cited from earlier work
[2] = tested on: R. sphaeroides 2.4.1; experiment: Glucose and xylose consumption in synthetic hydrolysate with individual aromatics added; type: cell-based, Rhodobacter sphaeroides; conditions: individual aromatics at concentrations present in SynH2, diluted to 20% strength, FIG. 9
Excerpt: For comparison, glucose and xylose utilization in 20% SynH2^− (no aromatics), as well as in 20% ACSH and 20% AHPCSH are also included.

SMILES: O=Cc1ccc(O)cc1 [4-Hydroxybenzaldehyde]
- Inhibitory to bacterial or yeast ethanologens [1]: inhibitory
- Effect on glucose utilization [2]: inhibited glucose utilization

SMILES: COc1cc(C=O)ccc1O [Vanillin]
- Inhibitory to bacterial or yeast ethanologens [1]: inhibitory

SMILES: O=C(O)/C=C/c1ccc(O)cc1 [p-Coumaric acid]
- Inhibitory to bacterial or yeast ethanologens [1]: inhibitory
- Effect on glucose utilization [2]: inhibited glucose utilization

SMILES: CC(=O)c1ccc(O)cc1 [4-Hydroxyacetophenone]
- Inhibitory to bacterial or yeast ethanologens [1]: inhibitory
- Effect on glucose utilization [2]: inhibited glucose utilization

SMILES: O=C(O)c1ccccc1 [Benzoate]
- Inhibitory to bacterial or yeast ethanologens [1]: inhibitory

SMILES: COc1cc(C(C)=O)ccc1O [Acetovanillone]
- Inhibitory to bacterial or yeast ethanologens [1]: inhibitory
